{"source": "patent US20260364078A1", "about": "“PURINE NUCLEOSIDE PHOSPHORYLASE INHIBITORS FOR THE TREATMENT OF METABOLIC SYNDROME AND ASSOCIATED CONDITIONS” (METASHAPE PHARMA AG, priority 2022, published 2026)", "assay_type_in_all_cases": "in vivo, C57/BL6J mice", "key": {"[1]": {"test_system": "Diet Induced Obesity (DIO) mouse model", "assay": "Example 1: low and intermittent dosing in DIO mouse model", "details": "2 mg/kg p.o., 3 days a week, 28 days", "text": "The aim of the preliminary study is to determine the effect of low and intermittent dosing of ulodesine hemi glutarate on the following parameters: weight gain, food intake, fasting blood glucose concentration and serum cholesterol. The study assesses ulodesine hemi glutarate efficacy on the listed parameters in the DIO mouse model of obesity and metabolic dysfunction.\nMethod: C57/BL6J mice were fed obesogenic diet D12492 (60 kcal % fat) from age 6 weeks. Eighteen week old mice (approximately 40 g) were either treated with vehicle (control) or ulodesine hemi glutarate at 2 mg/kg for 3 days a week (days 1, 2 and 3) given orally, over a 28 day period. On day −2 and on day 28, animals were fasted for 6 hr by withdrawing food only, and blood was collected for both blood glucose and cholesterol measurements."}, "DIO mouse model": {"test_system": "DIO mouse model", "assay": "Example 2: low and intermittent dosing in DIO mouse model", "details": "2 mg/kg p.o., 3 days a week", "text": "The aim of this study is to determine the effect of a low and intermittent dosing regime of ulodesine hemi glutarate on the following parameters: weight gain, food intake, fasting blood glucose concentration, serum insulin, serum cholesterol, plasma liver enzymes aspartate aminotransferase (AST) and alanine transaminase (ALT), inguinal white adipose tissue (iWAT), BAT; inosine in plasma and NAD+ in whole blood, and expression of lipogenesis (fatty acid synthesis) markers in iWAT and thermogenic markers in BAT. The study will assess ulodesine hemi glutarate efficacy on the listed parameters in the DIO mouse model of obesity and metabolic dysfunction.\n(§1) Method: C57/BL6J mice were fed obesogenic diet D12492 (60 kcal % fat) from age 6 weeks. Nineteen week old mice (approximately 50 g) were either treated with vehicle (control) or ulodesine hemi glutarate at 2 mg/kg for 3 days a week (days 1, 2 and 3), given orally, over a 28 day period. On day minus 2 and on day 28, animals were fasted for 6 hr (only food withdrawn) and blood was collected for both blood glucose and cholesterol. On day 28 plasma liver enzymes (AST and ALT) and insulin were determined and additional plasma and whole blood was frozen and used for inosine and NAD+ measurement. BAT and iWAT was collected at the end of the study, weighed and quantitative PCR was performed for the lipogenesis markers Stearoyl CoA desaturase 1 (SCD-1) and fatty acid synthetase (FAS) and the thermogenesis marker uncoupling protein 1 (UCP-1). Inosine and NAD+ levels in stored plasma and whole blood respectively were determined by LC/MS/MS."}, "[2]": {"test_system": "uncoupling protein 1 (UCP-1)", "assay": "Example 2: quantitative PCR of thermogenesis marker in BAT", "details": "2 mg/kg p.o., 3 days a week, 28 days; vs vehicle", "description": "as §1"}, "[3]": {"test_system": "Stearoyl CoA desaturase 1 (SCD-1)", "assay": "Example 2: quantitative PCR of lipogenesis marker SCD-1", "details": "2 mg/kg p.o., 3 days a week, 28 days; vs vehicle", "description": "as §1"}, "[4]": {"test_system": "fatty acid synthetase (FAS)", "assay": "Example 2: quantitative PCR of lipogenesis marker FAS", "details": "2 mg/kg p.o., 3 days a week, 28 days; vs vehicle", "description": "as §1"}, "lymphocytes": {"test_system": "lymphocytes", "assay": "Example 4: total lymphocytes by flow cytometry in DIO mouse model", "details": "3 days a week, 4 weeks", "description": "The aim of this study is to determine the effect of increasing doses of ulodesine hemi glutarate on lymphocytes in whole blood.\nMethod: C57/BL6J mice were fed obesogenic diet D12492 (60 kcal % fat) from age 6 weeks. Eighteen weeks old mice (approximately 40 g) were either treated with vehicle (control) or ulodesine hemi glutarate at 1, 2, 5, and 10 mg/kg for only 3 days a week (days 1, 2 and 3) given orally for 4 weeks. At the end of four weeks, flow cytometry was used to enumerate total lymphocytes."}}, "data": [{"smiles": "O=c1[nH]cnc2c(CN3C[C@H](CO)[C@@H](O)C3)c[nH]c12", "note": "[ulodesine hemi glutarate]", "values": [{"measurement": "toxicity or adverse effects", "setting": "[1]", "value": "no signs of any toxicity or adverse effects"}, {"measurement": "fasting blood glucose", "setting": "[1]; vs control", "value": "decrease in blood glucose"}, {"measurement": "serum cholesterol", "setting": "[1]; vs control", "value": "decrease in blood glucose and serum cholesterol"}, {"measurement": "weight gain", "setting": "[1]; ~40 g mice, vs control", "value": "significant decrease in weight gain"}, {"measurement": "insulin sensitivity", "setting": "DIO mouse model; 28 days", "value": "improves insulin sensitivity"}, {"measurement": "toxicity or adverse effects", "setting": "DIO mouse model; 28 days", "value": "no signs of any toxicity or adverse effects"}, {"measurement": "decrease in weight gain", "setting": "DIO mouse model; 28 days, ~50 g mice, vs control", "value": "not significantly different from the control group"}, {"measurement": "NAD+ in whole blood", "setting": "DIO mouse model; day 28, LC/MS/MS", "value": "significantly elevated"}, {"measurement": "inosine in plasma", "setting": "DIO mouse model; day 28, LC/MS/MS", "value": "significantly elevated"}, {"measurement": "expression of thermogenic marker UCP-1 in BAT tissue", "setting": "[2]", "value": "increase in expression"}, {"measurement": "expression of lipogenesis marker SCD-1 in WAT tissue", "setting": "[3]", "value": "decrease"}, {"measurement": "expression of lipogenesis marker FAS in WAT tissue", "setting": "[4]", "value": "decrease"}, {"measurement": "number of lymphocytes", "setting": "lymphocytes; 1 mg/kg p.o.", "value": "does not impact the number of lymphocytes"}, {"measurement": "number of lymphocytes", "setting": "lymphocytes; 2 mg/kg p.o.", "value": "does not impact the number of lymphocytes"}, {"measurement": "number of lymphocytes", "setting": "lymphocytes; 5 mg/kg p.o.", "value": "not significant at doses of 5 mg and 10 mg/kg, there appeared to be an observable decrease in lymphocytes"}, {"measurement": "number of lymphocytes", "setting": "lymphocytes; 10 mg/kg p.o.", "value": "not significant at doses of 5 mg and 10 mg/kg, there appeared to be an observable decrease in lymphocytes"}]}]}
